18 compounds from patent publication US9371294B2, “Cycloalkenyl aryl derivatives for CETP inhibitor” (CHONG KUN DANG PHARMACEUTICAL CORP., priority 2011, dated 2016) can be followed below.

This assay has as its target T1, cholesteryl ester transfer protein (Homo sapiens, UniProt P11597).
T1 construct: As a source of cholesteryl ester transfer protein, plasma from healthy humans was used; from tissue; host or cells: plasma from healthy humans
T1 sequence (P11597 18-493): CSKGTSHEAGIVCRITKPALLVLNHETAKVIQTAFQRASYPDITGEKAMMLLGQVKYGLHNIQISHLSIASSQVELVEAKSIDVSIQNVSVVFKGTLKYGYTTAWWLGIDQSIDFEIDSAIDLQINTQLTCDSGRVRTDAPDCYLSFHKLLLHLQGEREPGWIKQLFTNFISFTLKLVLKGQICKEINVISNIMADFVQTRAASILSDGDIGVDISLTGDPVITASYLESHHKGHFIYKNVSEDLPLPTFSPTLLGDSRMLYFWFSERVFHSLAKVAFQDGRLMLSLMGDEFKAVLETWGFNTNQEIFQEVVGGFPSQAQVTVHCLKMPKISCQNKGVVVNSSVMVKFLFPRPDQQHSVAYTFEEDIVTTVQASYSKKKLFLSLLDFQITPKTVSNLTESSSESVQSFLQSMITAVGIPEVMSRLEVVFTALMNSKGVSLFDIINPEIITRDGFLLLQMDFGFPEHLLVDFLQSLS
Kind of assay: In vitro test for the ability to inhibit cholesteryl ester transfer. Particulars: [3H]-cholesteryl oleate transfer from rHDL-agarose to LDL; human plasma as CETP source; 37° C.; 16-10000 nM, duplicate. Format: biochemical. The source says:
In Vitro Test for the Ability to Inhibit Cholesteryl Ester Transfer
1. Preparation of Cholesteryl Ester Donor
In order to prepare a cholesteryl ester donor to be used in the test, a radiolabeled recombinant HDL containing [^3H]-cholesteryl oleate (GE healthcare, TRK886, 3.5 μCi/mg of apoA-1) and apoA-1 was synthesized. Then, rHDL-agarose obtained by immobilizing the recombinant HDL with CNBr-activated Sepharose 4B resin (Amersham Biosciences, Sweden) was used in the test.
2. Cholesteryl Ester Transfer Test
As a source of cholesteryl ester transfer protein, plasma from healthy humans was used, and as cholesteryl ester receptor, LDL from healthy humans was used. Each of test compounds was added to be final concentrations of 16, 80, 400, 2000 and 10000 nM and tested in duplicate. In order to test cholesteryl ester transfer, 20 μl of plasma, 50 μl of LDL (0.25 mg/ml) and 50 μl of rHDL-agarose (0.25 mg/ml) were mixed with each other, and a solution of each test compound was added thereto and reacted thereto at 37° C. Then, the reaction solution was centrifuged at 4° C. for 3 minutes, thereby the reaction was stopped. 150 μl of the supernatant was transferred into a 96-well plate for radioactivity measurement, and the radioactivity thereof was measured with a beta-ray detector.
3. Statistical Processing
The ratio of [^3H]-cholesteryl oleate transferred from HDL to LDL was determined, and based on the determined ratio, the IC50 value of each compound was determined using GraphPad Prism 5.0.
With `COc1cc(F)c(C(C)C)cc1C1=C(CN2C(=O)O[C@H](c3cc(C(F)(F)F)cc(C(F)(F)F)c3)[C@@H]2C)CC(F)(F)CC1` [Compound 123, (4S,5R)-5-(3,5-bis(trifluoromethyl)phenyl)-3-((5,5-difluoro-2-(4-fluoro-5-isopropyl-2-methoxyphenyl)cyclohex-1-enyl)methyl)-4-methyloxazolidin-2-one], it took 20 nM to reach half-maximal inhibition (IC50). This counts as double-digit nanomolar.
With `COC(=O)N(C)c1ccc(OC)c(C2=C(CN3C(=O)O[C@H](c4cc(C(F)(F)F)cc(C(F)(F)F)c4)[C@@H]3C)CC(C)(C)CC2)c1` [Compound 124, methyl 3-(2-(((4S,5R)-5-(3,5-bis(trifluoromethyl)phenyl)-4-methyl-2-oxooxazolidin-3-yl)methyl)-4,4-dimethylcyclohex-1-enyl)-4-methoxyphenyl(methyl)carbamate] the figure was 20 nM.
Take `COc1ccc(N(C)S(C)(=O)=O)cc1C1=C(CN2C(=O)O[C@H](c3cc(C(F)(F)F)cc(C(F)(F)F)c3)[C@@H]2C)CC(C)(C)CC1` [Compound 128, N-(3-(2-(((4S,5R)-5-(3,5-bis(trifluoromethyl)phenyl)-4-methyl-2-oxooxazolidin-3-yl)methyl)-4,4-dimethylcyclohex-1-enyl)-4-methoxyphenyl)-N-methylmethanesulfonamide]: the IC50 came out at 60 nM.
Turning to `COc1ccc(N(C)C(=O)CC(F)(F)F)cc1C1=C(CN2C(=O)O[C@H](c3cc(C(F)(F)F)cc(C(F)(F)F)c3)[C@@H]2C)CC(C)(C)CC1` [Compound 130, N-(3-(2-(((4S,5R)-5-(3,5-bis(trifluoromethyl)phenyl)-4-methyl-2-oxooxazolidin-3-yl)methyl)-4,4-dimethylcyclohex-1-enyl)-4-methoxyphenyl)-3,3,3-trifluoro-N-methylpropanamide], the IC50 is 20 nM.
Compound `COc1ccc(NS(=O)(=O)C(F)(F)F)cc1C1=C(CN2C(=O)O[C@H](c3cc(C(F)(F)F)cc(C(F)(F)F)c3)[C@@H]2C)CC(C)(C)CC1` [Compound 137, N-(3-(2-(((4S,5R)-5-(3,5-bis(trifluoromethyl)phenyl)-4-methyl-2-oxooxazolidin-3-yl)methyl)-4,4-dimethylcyclohex-1-enyl)-4-methoxyphenyl)trifluoromethanesulfonamide] registered an IC50 of 80 nM.
As for `COc1ccc(C(O)(C(F)(F)F)C(F)(F)F)cc1C1=C(CN2C(=O)O[C@H](c3cc(C(F)(F)F)cc(C(F)(F)F)c3)[C@@H]2C)CC(C)(C)CC1` [Compound 181, (4S,5R)-5-(3,5-bis(trifluoromethyl)phenyl)-3-((2-(5-(1,1,1,3,3,3-hexafluoro-2-hydroxypropan-2-yl)-2-methoxyphenyl)-5,5-dimethylcyclohex-1-enyl)methyl)-4-methyloxazolidin-2-one], the figure is 50 nM; as for `COc1ccc(C(OC)(C(F)(F)F)C(F)(F)F)cc1C1=C(CN2C(=O)O[C@H](c3cc(C(F)(F)F)cc(C(F)(F)F)c3)[C@@H]2C)CC(C)(C)CC1` [Compound 182, (4S,5R)-5-(3,5-bis(trifluoromethyl)phenyl)-3-((2-(5-(1,1,1,3,3,3-hexafluoro-2-methoxypropan-2-yl)-2-methoxyphenyl)-5,5-dimethylcyclohex-1-enyl)methyl)-4-methyloxazolidin-2-one], 50 nM.
With `COc1cc(F)c(C(C)=O)cc1C1=C(CN2C(=O)O[C@H](c3cc(C(F)(F)F)cc(C(F)(F)F)c3)[C@@H]2C)CC(C)(C)CC1` [Compound 184, (4S,5R)-3-((2-(5-acetyl-4-fluoro-2-methoxyphenyl)-5,5-dimethylcyclohex-1-enyl)methyl)-5-(3,5-bis(trifluoromethyl)phenyl)-4-methyloxazolidin-2-one] the figure was 20 nM; with `COc1ccc(C2=NCCO2)cc1C1=C(CN2C(=O)O[C@H](c3cc(C(F)(F)F)cc(C(F)(F)F)c3)[C@@H]2C)CC(C)(C)CC1` [Compound 185, (4S,5R)-5-(3,5-bis(trifluoromethyl)phenyl)-3-((2-(5-(4,5-dihydrooxazol-2-yl)-2-methoxyphenyl)-5,5-dimethylcyclohex-1-enyl)methyl)-4-methyloxazolidin-2-one], 180 nM.
As for `COc1ccc(C2=N[C@H](C(C)C)CO2)cc1C1=C(CN2C(=O)O[C@H](c3cc(C(F)(F)F)cc(C(F)(F)F)c3)[C@@H]2C)CC(C)(C)CC1` [Compound 188, (4S,5R)-5-(3,5-bis(trifluoromethyl)phenyl)-3-((2-(5-((R)-4-isopropyl-4,5-dihydrooxazol-2-yl)-2-methoxyphenyl)-5,5-dimethylcyclohex-1-enyl)methyl)-4-methyloxazolidin-2-one], the figure is 120 nM.
On to `COc1ccc(C2(C#N)CC2)cc1C1=C(CN2C(=O)O[C@H](c3cc(C(F)(F)F)cc(C(F)(F)F)c3)[C@@H]2C)CC(C)(C)CC1` [Compound 189, 1-(3-(2-(((4S,5R)-5-(3,5-bis(trifluoromethyl)phenyl)-4-methyl-2-oxooxazolidin-3-yl)methyl)-4,4-dimethylcyclohex-1-enyl)-4-methoxyphenyl)cyclopropanecarbonitrile], for which the IC50 was found to be 20 nM.
With `COc1ccc(C2(C(N)=O)CC2)cc1C1=C(CN2C(=O)O[C@H](c3cc(C(F)(F)F)cc(C(F)(F)F)c3)[C@@H]2C)CC(C)(C)CC1` [Compound 190, 1-(3-(2-(((4S,5R)-5-(3,5-bis(trifluoromethyl)phenyl)-4-methyl-2-oxooxazolidin-3-yl)methyl)-4,4-dimethylcyclohex-1-enyl)-4-methoxyphenyl)cyclopropanecarboxamide] the figure was 10 nM.
For `COc1cc(F)c(C(=O)C(F)(F)F)cc1C1=C(CN2C(=O)O[C@H](c3cc(C(F)(F)F)cc(C(F)(F)F)c3)[C@@H]2C)CC(C)(C)CC1` [Compound 191, (4S,5R)-5-(3,5-bis(trifluoromethyl)phenyl)-3-((2-(4-fluoro-2-methoxy-5-(2,2,2-trifluoroacetyl)phenyl)-5,5-dimethylcyclohex-1-enyl)methyl)-4-methyloxazolidin-2-one], the IC50 turned out to be 90 nM.
As for `COc1cc(F)c(C(=O)C2CC2)cc1C1=C(CN2C(=O)O[C@H](c3cc(C(F)(F)F)cc(C(F)(F)F)c3)[C@@H]2C)CC(C)(C)CC1` [Compound 192, (4S,5R)-5-(3,5-bis(trifluoromethyl)phenyl)-3-((2-(5-(cyclopropanecarbonyl)-4-fluoro-2-methoxyphenyl)-5,5-dimethylcyclohex-1-enyl)methyl)-4-methyloxazolidin-2-one], the figure is 60 nM; as for `COc1ccc(C(F)(F)F)cc1C1=C(CN2C(=O)O[C@H](c3cc(C(F)(F)F)cc(C(F)(F)F)c3)[C@@H]2C)CC(C(F)(F)F)CC1` (stereo partly drawn) [Compound 193, (4S,5R)-5-(3,5-bis(trifluoromethyl)phenyl)-3-((2-(2-methoxy-5-(trifluoromethyl)phenyl)-5-(trifluoromethyl)cyclohex-1-enyl)methyl)-4-methyloxazolidin-2-one], 40 nM; as for `COc1ccc([N+](=O)[O-])cc1C1=C(CN2C(=O)O[C@H](c3cc(C(F)(F)F)cc(C(F)(F)F)c3)[C@@H]2C)CC(C(F)(F)F)CC1` (stereo partly drawn) [Compound 194, (4S,5R)-5-(3,5-bis(trifluoromethyl)phenyl)-3-((2-(2-methoxy-5-nitrophenyl)-5-(trifluoromethyl)cyclohex-1-enyl)methyl)-4-methyloxazolidin-2-one], 100 nM.
As for `COc1ccc(N)cc1C1=C(CN2C(=O)O[C@H](c3cc(C(F)(F)F)cc(C(F)(F)F)c3)[C@@H]2C)CC(C(F)(F)F)CC1` (stereo partly drawn) [Compound 195, (4S,5R)-3-((2-(5-amino-2-methoxyphenyl)-5-(trifluoromethyl)cyclohex-1-enyl)methyl)-5-(3,5-bis(trifluoromethyl)phenyl)-4-methyloxazolidin-2-one], the figure is 840 nM; as for `COc1ccc(NC(C)=O)cc1C1=C(CN2C(=O)O[C@H](c3cc(C(F)(F)F)cc(C(F)(F)F)c3)[C@@H]2C)CC(C(F)(F)F)CC1` (stereo partly drawn) [Compound 196, N-(3-(2-(((4S,5R)-5-(3,5-bis(trifluoromethyl)phenyl)-4-methyl-2-oxooxazolidin-3-yl)methyl)-4-(trifluoromethyl)cyclohex-1-enyl)-4-methoxyphenyl)acetamide], 490 nM.

The term IC50 denotes the concentration needed to halve the response being measured. A high value points to weaker potency in that assay.
